From US9708334B2, “Substituted 2,4,5,6-tetrahydropyrrolo[3,4-c]pyrazole and 4,5,6,7-tetrahydro-2H-pyrazolo[4,3-c]pyridine compounds as GlyT1 inhibitors” (DART NEUROSCIENCE (CAYMAN) LTD., priority 2014, dated 2017)

target: T1, GlyT1 (Homo sapiens, UniProt P48067); experiment: Glycine Transporter 1 (GlyT1) uptake assay, scintillation proximity assay of [14C]-glycine uptake; type: cell-based; settings: SPA, four parameter logistic fit, read-out: GlyT1 (pIC50) (converted)
T1 construct: expressed in transfected cells
T1 sequence (P48067 1-706): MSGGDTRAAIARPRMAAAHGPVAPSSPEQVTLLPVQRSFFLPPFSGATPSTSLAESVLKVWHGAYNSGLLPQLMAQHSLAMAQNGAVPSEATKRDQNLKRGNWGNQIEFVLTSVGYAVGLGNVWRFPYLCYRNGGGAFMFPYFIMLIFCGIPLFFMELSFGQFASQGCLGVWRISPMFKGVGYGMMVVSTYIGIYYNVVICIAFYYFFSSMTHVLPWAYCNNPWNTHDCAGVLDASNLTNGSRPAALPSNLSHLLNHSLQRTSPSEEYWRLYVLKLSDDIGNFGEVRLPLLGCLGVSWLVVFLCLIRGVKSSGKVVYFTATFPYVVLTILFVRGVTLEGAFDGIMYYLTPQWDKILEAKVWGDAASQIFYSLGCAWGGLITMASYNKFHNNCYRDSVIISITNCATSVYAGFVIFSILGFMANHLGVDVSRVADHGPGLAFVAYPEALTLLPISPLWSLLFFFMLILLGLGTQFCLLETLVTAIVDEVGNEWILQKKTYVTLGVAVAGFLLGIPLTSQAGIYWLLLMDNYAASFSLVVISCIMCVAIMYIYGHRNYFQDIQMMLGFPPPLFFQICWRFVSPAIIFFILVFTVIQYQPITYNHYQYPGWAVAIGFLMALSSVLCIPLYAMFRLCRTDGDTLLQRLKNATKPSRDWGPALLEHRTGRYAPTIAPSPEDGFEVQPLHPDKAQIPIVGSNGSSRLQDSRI
Procedure, shortened: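 IC50 values derive from four-parameter logistic curves fitted to dose-response data. Uptake of [14C]-glycine measured in scintillation proximity format.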

Row | IC50 [nM] | SMILES
1 | < 100 | C[C@H](Oc1ccc(S(C)(=O)=O)cc1C(=O)N1Cc2cn(-c3cccc(F)c3Cl)nc2C1)C(F)(F)F [Example 147, 2-(2-Chloro-3-fluorophenyl)-5-(5-methanesulfonyl-2-{[(2S)-1 1 1-trifluoropropan-2-yl]oxy}benzoyl)-2H 4H 5H 6H-pyrrolo[3,4-c]pyrazole]
2 | < 100 | CC(C)Oc1ccc(S(C)(=O)=O)cc1C(=O)N1Cc2cn(-c3cccc(Cl)c3F)nc2C1 [Example 148, 2-(3-Chloro-2-fluorophenyl)-5-[5-methanesulfonyl-2-(propan-2-yloxy)benzoyl]-2H 4H 5H 6H-pyrrolo[3,4-c]pyrazole]
3 | < 100 | CC(C)Oc1ccc(S(C)(=O)=O)cc1C(=O)N1Cc2cn(-c3cccc(F)c3Cl)nc2C1 [Example 149, 2-(2-Chloro-3-fluorophenyl)-5-[5-methanesulfonyl-2-(propan-2-yloxy)benzoyl]-2H 4H 5H 6H-pyrrolo[3,4-c]pyrazole]
4 | < 100 | CCS(=O)(=O)c1ccc(O[C@@H](C)C(F)(F)F)c(C(=O)N2Cc3cn(-c4cccc(Cl)c4F)nc3C2)c1 [Example 150, 2-(3-Chloro-2-fluorophenyl)-5-[5-(ethanesulfonyl)-2-{[(2S)-1 1 1-trifluoropropan-2-yl]oxy}benzoyl]-2H 4H 5H 6H-pyrrolo[3,4-c]pyrazole]
5 | < 100 | CCS(=O)(=O)c1ccc(O[C@@H](C)C(F)(F)F)c(C(=O)N2Cc3cn(-c4cccc(F)c4Cl)nc3C2)c1 [Example 151, 2-(2-Chloro-3-fluorophenyl)-5-[5-(ethanesulfonyl)-2-{[(2S)-1 1 1-trifluoropropan-2-yl]oxy}benzoyl]-2H 4H 5H 6H-pyrrolo[3,4-c]pyrazole]
6 | < 100 | CS(=O)(=O)c1ccc(-c2cccc(F)c2)c(C(=O)N2Cc3cn(-c4ccccn4)nc3C2)c1 [Example 152, 2-{5-[2-(3-Fluorophenyl)-5-methanesulfonylbenzoyl]-2H 4H 5H 6H-pyrrolo[3,4-c]pyrazol-2-yl}pyridine]
7 | < 100 | CC(Oc1ccc(C#N)c(Cl)c1C(=O)N1CCc2nn(-c3cncc(F)c3)cc2C1)C(F)(F)F (centres unmarked) [Example 153, 2-Chloro-3-[2-(5-fluoropyridin-3-yl)-2H 4H 5H 6H 7H-pyrazolo[4,3-c]pyridine-5-carbonyl]-4-[(1 1 1-trifluoropropan-2-yl)oxy]benzonitrile]
8 | < 100 | COc1c(C#N)ccc(OC(C)C(F)(F)F)c1C(=O)N1CCc2nn(-c3cncc(F)c3)cc2C1 (centres unmarked) [Example 154, 3-[2-(5-Fluoropyridin-3-yl)-2H 4H 5H 6H 7H-pyrazolo[4,3-c]pyridine-5-carbonyl]-2-methoxy-4-[(1 1 1-trifluoropropan-2-yl)oxy]benzonitrile]
9 | 100 to 1000 | N#Cc1ccc(OCC(F)(F)F)c(C(=O)N2CCc3nn(-c4ccncc4)cc3C2)c1Cl [Example 155, 2-Chloro-3-[2-(pyridin-4-yl)-2H 4H 5H 6H 7H-pyrazolo[4,3-c]pyridine-5-carbonyl]-4-(2 2 2-trifluoroethoxy)benzonitrile]
10 | < 100 | COc1c(C#N)ccc(OCC(F)(F)F)c1C(=O)N1CCc2nn(-c3ccncc3)cc2C1 [Example 156, 2-Methoxy-3-[2-(pyridin-4-yl)-2H 4H 5H 6H 7H-pyrazolo[4,3-c]pyridine-5-carbonyl]-4-(2 2 2-trifluoroethoxy)benzonitrile]
11 | > 10000 | Cn1ncc2c1CN(C(=O)c1cc(S(C)(=O)=O)ccc1OCC1CC1)C2 [Example 157, 5-[2-(Cyclopropylmethoxy)-5-methanesulfonylbenzoyl]-1-methyl-1H 4H 5H 6H-pyrrolo[3,4-c]pyrazole]
12 | > 10000 | Cn1ncc2c1CCN(C(=O)c1cc(S(C)(=O)=O)ccc1OCC1CC1)C2 [Example 158, 5-[2-(Cyclopropylmethoxy)-5-methanesulfonylbenzoyl]-1-methyl-1H 4H 5H 6H 7H-pyrazolo[4,3-c]pyridine]
13 | 1000 to 10000 | CS(=O)(=O)c1ccc(OCC2CC2)c(C(=O)N2Cc3cnn(-c4cccc(C(F)(F)F)c4)c3C2)c1 [Example 159, 5-[2-(Cyclopropylmethoxy)-5-methanesulfonylbenzoyl]-1-[3-(trifluoromethyl)phenyl]-1H 4H 5H 6H-pyrrolo[3,4-c]pyrazole]
14 | 1000 to 10000 | CS(=O)(=O)c1ccc(OCC2CC2)c(C(=O)N2CCc3c(cnn3-c3cccc(C(F)(F)F)c3)C2)c1 [Example 160, 5-[2-(Cyclopropylmethoxy)-5-methanesulfonylbenzoyl]-1-[3-(trifluoromethyl)phenyl]-1H 4H 5H 6H 7H-pyrazolo[4,3-c]pyridine]
15 | 1000 to 10000 | CC(Oc1ccc(S(C)(=O)=O)cc1C(=O)N1CCc2c(cnn2C)C1)C(F)(F)F (centres unmarked) [Example 161, 5-{5-Methanesulfonyl-2-[(1 1 1-trifluoropropan-2-yl)oxy]benzoyl}-1-methyl-1H 4H 5H 6H 7H-pyrazolo[4,3-c]pyridine]
16 | 100 to 1000 | CC(Oc1ccc(S(C)(=O)=O)cc1C(=O)N1CCc2c(cnn2-c2cccc(C(F)(F)F)c2)C1)C(F)(F)F (centres unmarked) [Example 162, 5-{5-Methanesulfonyl-2-[(1 1 1-trifluoropropan-2-yl)oxy]benzoyl}-1-[3-(trifluoromethyl)phenyl]-1H 4H 5H 6H 7H-pyrazolo[4,3-c]pyridine]
17 | 100 to 1000 | CC(Oc1ccc(S(C)(=O)=O)cc1C(=O)N1CCc2nn(-c3ccccc3)cc2C1)C(F)(F)F (centres unmarked) [Example 163, 5-{5-Methanesulfonyl-2-[(1 1 1-trifluoropropan-2-yl)oxy]benzoyl}-2-phenyl-2H 4H 5H 6H 7H-pyrazolo[4,3-c]pyridine]
18 | 100 to 1000 | CC(Oc1ccc(S(C)(=O)=O)cc1C(=O)N1CCc2c(cnn2-c2ccccc2)C1)C(F)(F)F (centres unmarked) [Example 164, 5-{5-Methanesulfonyl-2-[(1 1 1-trifluoropropan-2-yl)oxy]benzoyl}-1-phenyl-1H 4H 5H 6H 7H-pyrazolo[4,3-c]pyridine]
19 | 1000 to 10000 | CS(=O)(=O)c1ccc(N2CCCCC2)c(C(=O)N2CCc3c(c(C(F)(F)F)nn3-c3ccccc3)C2)c1 [Example 165, 1-{4-Methanesulfonyl-2-[1-phenyl-3-(trifluoromethyl)-1H 4H 5H 6H 7H-pyrazolo[4,3-c]pyridine-5-carbonyl]phenyl}piperidine]
20 | 100 to 1000 | Cc1nn(-c2ccccc2)c2c1CN(C(=O)c1cc(S(C)(=O)=O)ccc1N1CCCCC1)CC2 [Example 166, 1-(4-Methanesulfonyl-2-{3-methyl-1-phenyl-1H 4H 5H 6H 7H-pyrazolo[4,3-c]pyridine-5-carbonyl}phenyl)piperidine]
21 | 100 to 1000 | Cc1c2c(nn1-c1ccccc1)CCN(C(=O)c1cc(S(C)(=O)=O)ccc1N1CCCCC1)C2 [Example 167, 1-(4-Methanesulfonyl-2-{3-methyl-2-phenyl-2H 4H 5H 6H 7H-pyrazolo[4,3-c]pyridine-5-carbonyl}phenyl)piperidine]
22 | 1000 to 10000 | CC(Oc1ccc(S(C)(=O)=O)cc1C(=O)N1CCc2c(c(C(F)(F)F)nn2-c2ccccc2)C1)C(F)(F)F (centres unmarked) [Example 168, 5-{5-Methanesulfonyl-2-[(1 1 1-trifluoropropan-2-yl)oxy]benzoyl}-1-phenyl-3-(trifluoromethyl)-1H 4H 5H 6H 7H-pyrazolo[4,3-c]pyridine]
23 | 100 to 1000 | N#Cc1ccc(C2CCCC2)c(C(=O)N2CCc3nn(-c4ccccc4)cc3C2)c1 [Example 169, 4-Cyclopentyl-3-{2-phenyl-2H 4H 5H 6H 7H-pyrazolo[4,3-c]pyridine-5-carbonyl}benzonitrile]
24 | < 100 | CS(=O)(=O)c1ccc(C2CCCC2)c(C(=O)N2CCc3nn(-c4ccccc4)cc3C2)c1 [Example 170, 5-(2-Cyclopentyl-5-methanesulfonylbenzoyl)-2-phenyl-2H 4H 5H 6H 7H-pyrazolo[4,3-c]pyridine]
25 | 100 to 1000 | O=C(c1cc(N2CCOC2=O)ccc1C1CCCC1)N1CCc2nn(-c3ccccc3)cc2C1 [Example 171, 3-(4-Cyclopentyl-3-{2-phenyl-2H 4H 5H 6H 7H-pyrazolo[4,3-c]pyridine-5-carbonyl}phenyl)-1 3-oxazolidin-2-one]
26 | 1000 to 10000 | CC(Oc1ccc(N2CCOC2=O)cc1C(=O)N1CCc2nn(-c3ccccc3)cc2C1)C(F)(F)F (centres unmarked) [Example 172, 3-(3-{2-Phenyl-2H 4H 5H 6H 7H-pyrazolo[4,3-c]pyridine-5-carbonyl}-4-[(1 1 1-trifluoropropan-2-yl)oxy]phenyl)-1 3-oxazolidin-2-one]
27 | 100 to 1000 | [2H]C1(c2ccc(C#N)cc2C(=O)N2CCc3nn(-c4ccccc4)cc3C2)CCCC1 [Example 173, 4-[(1-^2H)Cyclopentyl]-3-{2-phenyl-2H 4H 5H 6H 7H-pyrazolo[4,3-c]pyridine-5-carbonyl}benzonitrile]
28 | 1000 to 10000 | N#Cc1ccc(C2CCC2)c(C(=O)N2CCc3nn(-c4ccccc4)cc3C2)c1 [Example 174, 4-Cyclobutyl-3-{2-phenyl-2H 4H 5H 6H 7H-pyrazolo[4,3-c]pyridine-5-carbonyl}benzonitrile]
29 | 100 to 1000 | N#Cc1ccc(C2CCCC2)c(C(=O)N2CCc3nn(-c4ccccc4)cc3C2)c1F [Example 175, 4-Cyclopentyl-2-fluoro-3-{2-phenyl-2H 4H 5H 6H 7H-pyrazolo[4,3-c]pyridine-5-carbonyl}benzonitrile]
